Data: patent US4401660A, “Ester derivatives of 5-O-mycaminosyl tylonolide and method of using same” (Eli Lilly and Company, priority 1981, dated 1983)

Columns and labels:
[1] = system: Pasteurella multocida; experiment: Treatment of Pasteurella infections in chicks (Table V); type: in vivo, one-day-old chicks; conditions: Pasteurella multocida, sc, 4 h; 30 mg/kg by subcutaneous injection one and four hours post challenge; read-out: Deaths in Treated Chicks/Number Treated (converted)
Experimental: Certain OMT ester derivatives are active in vivo against Pasteurella infections. Table V summarizes the results of tests in which the ester derivatives were administered to one-day-old chicks at a dosage level of 30 mg/kg by subcutaneous injection one and four hours post challenge of the chicks with Pasteurella multocida (0.1 ml of a 10^-3 dilution of a 20-hour tryptose broth culture of avian P. multocida given subcutaneously). All nonmedicated infected chicks (ten in each control group) died within 24 hours of Pasteurella challenge.

[2] = system: Pasteurella multocida 17E; experiment: MIC, broth-dilution microtiter test (Table III); type: cell-based; design: unit not given here; conditions: bovine isolate
Experimental: (§1) The MIC's in Table II were determined by standard agar-dilution assays. The MIC's in Table III were obtained using a conventional broth-dilution microtiter test.

[3] = system: Mycoplasma gallisepticum; experiment: MIC, broth-dilution microtiter test (Table III); type: cell-based; design: unit not given here
Experimental: as §1

[4] = system: Streptococcus sp. 80; experiment: MIC, broth-dilution microtiter test (Table III); type: cell-based; design: unit not given here
Experimental: as §1

[5] = system: Mycoplasma hyorhinis; experiment: MIC, broth-dilution microtiter test (Table III); type: cell-based; design: unit not given here
Experimental: as §1

[6] = system: Staphylococcus aureus; experiment: MIC, broth-dilution microtiter test (Table III); type: cell-based; design: unit not given here
Experimental: as §1

[7] = system: Mycoplasma synoviae; experiment: MIC, broth-dilution microtiter test (Table III); type: cell-based; design: unit not given here
Experimental: as §1

[8] = system: Pasteurella multocida 60A; experiment: MIC, broth-dilution microtiter test (Table III); type: cell-based; design: unit not given here; conditions: avian isolate
Experimental: as §1

[9] = system: Staphylococcus epidermidis EPI2; experiment: MIC, standard agar-dilution assay (Table II); type: cell-based; design: unit not given here
Experimental: as §1

[10] = system: Staphylococcus aureus X1.1; experiment: MIC, standard agar-dilution assay (Table II); type: cell-based; design: unit not given here
Experimental: as §1

[11] = system: Streptococcus Group D X66; experiment: MIC, standard agar-dilution assay (Table II); type: cell-based; design: unit not given here
Experimental: as §1

[12] = system: Streptococcus pyogenes C203; experiment: MIC, standard agar-dilution assay (Table II); type: cell-based; design: unit not given here
Experimental: as §1

[13] = system: Streptococcus Group D 9960; experiment: MIC, standard agar-dilution assay (Table II); type: cell-based; design: unit not given here
Experimental: as §1

[14] = system: Staphylococcus epidermidis EPI1; experiment: MIC, standard agar-dilution assay (Table II); type: cell-based; design: unit not given here
Experimental: as §1

[15] = system: Staphylococcus aureus S13E; experiment: MIC, standard agar-dilution assay (Table II); type: cell-based; design: unit not given here
Experimental: as §1

[16] = system: Staphylococcus aureus X400; experiment: MIC, standard agar-dilution assay (Table II); type: cell-based; design: unit not given here; conditions: Staphylococcus aureus X400, methicillin-resistant strain
Experimental: as §1

[17] = system: Haemophilus influenzae Holt; experiment: MIC, standard agar-dilution assay (Table II); type: cell-based; design: unit not given here; conditions: ampicillin-sensitive strain
Experimental: as §1

[18] = system: Staphylococcus aureus V41; experiment: MIC, standard agar-dilution assay (Table II); type: cell-based; design: unit not given here; conditions: Staphylococcus aureus V41, penicillin-resistant strain
Experimental: as §1

[19] = system: Haemophilus influenzae R252; experiment: MIC, standard agar-dilution assay (Table II); type: cell-based; design: unit not given here; conditions: Haemophilus influenzae R252, ampicillin-resistant strain
Experimental: as §1

[20] = system: Streptococcus pneumoniae Park I; experiment: MIC, standard agar-dilution assay (Table II); type: cell-based; design: unit not given here
Experimental: as §1

[21] = system: Pasteurella multocida 68C; experiment: MIC, broth-dilution microtiter test (Table III); type: cell-based; design: unit not given here
Experimental: as §1

[22] = system: Pasteurella haemolytica 23C; experiment: MIC, broth-dilution microtiter test (Table III); type: cell-based; design: unit not given here
Experimental: as §1

[23] = system: Pasteurella haemolytica 22C; experiment: MIC, broth-dilution microtiter test (Table III); type: cell-based; design: unit not given here
Experimental: as §1

[24] = system: Pasteurella haemolytica 41D; experiment: MIC, broth-dilution microtiter test (Table III); type: cell-based; design: unit not given here
Experimental: as §1

[25] = system: Pasteurella multocida 22A; experiment: MIC, broth-dilution microtiter test (Table III); type: cell-based; design: unit not given here
Experimental: as §1

Row | Compound | mortality at 30 mg/kg [1] [%] | minimal inhibitory concentration (MIC) [2] | minimal inhibitory concentration (MIC) [3] | minimal inhibitory concentration (MIC) [4] | minimal inhibitory concentration (MIC) [5] | minimal inhibitory concentration (MIC) [6] | minimal inhibitory concentration (MIC) [7] | minimal inhibitory concentration (MIC) [8] | minimal inhibitory concentration (MIC) [9] | minimal inhibitory concentration (MIC) [10] | minimal inhibitory concentration (MIC) [11] | minimal inhibitory concentration (MIC) [12] | minimal inhibitory concentration (MIC) [13] | minimal inhibitory concentration (MIC) [14] | minimal inhibitory concentration (MIC) [15] | minimal inhibitory concentration (MIC) [16] | minimal inhibitory concentration (MIC) [17] | minimal inhibitory concentration (MIC) [18] | minimal inhibitory concentration (MIC) [19] | minimal inhibitory concentration (MIC) [20] | other results
1 | CCCCC(=O)OCC1C=C(C)C=CC(=O)C(C)CC(CC=O)C(OC2OC(C)C(OC(C)=O)C(N(C)C)C2OC(C)=O)C(C)C(O)CC(=O)OC1CC (centres unmarked) [Compound 19] | 100 | 1.56 | < 0.05 | < 0.05 | 6.25 | 0.39 | < 0.05 | 3.12 | 0.125 | 0.25 | 0.5 | 0.25 | 0.5 | 0.125 | 0.25 | 0.5 | 2 | 0.25 | 2 | 0.03 | –
2 | CCCCCCCC(=O)OCC1C=C(C)C=CC(=O)C(C)CC(CC=O)C(OC2OC(C)C(OC(C)=O)C(N(C)C)C2OC(C)=O)C(C)C(O)CC(=O)OC1CC (centres unmarked) [Compound 23] | 100 | 6.25 | 0.097 | 0.39 | 3.12 | 0.78 | 0.39 | 6.25 | 0.5 | 0.25 | 1 | 0.5 | 1 | 0.5 | 0.5 | 1 | 8 | 0.5 | 8 | 0.25 | –
3 | CCCC(=O)OCC1C=C(C)C=CC(=O)C(C)CC(CC=O)C(OC2OC(C)C(O)C(N(C)C)C2O)C(C)C(O)CC(=O)OC1CC (centres unmarked) [Compound 16] | 60 | 1.56 | < 0.05 | 0.195 | 0.78 | 0.39 | 0.097 | 3.12 | 0.25 | 0.25 | 0.25 | 0.25 | 0.25 | 0.25 | 0.25 | 0.5 | 2 | 0.25 | 2 | 0.06 | –
4 | CCCCC(=O)OCC1C=C(C)C=CC(=O)C(C)CC(CC=O)C(OC2OC(C)C(O)C(N(C)C)C2O)C(C)C(O)CC(=O)OC1CC (centres unmarked) [Compound 20] | 0 | 1.56 | < 0.05 | 0.39 | 3.12 | 0.39 | < 0.05 | 3.12 | 0.25 | 0.25 | 0.5 | 0.25 | 0.5 | 0.25 | 0.25 | 0.5 | 2 | 0.25 | 2 | 0.06 | –
5 | CCC1OC(=O)CC(O)C(C)C(OC2OC(C)C(OC(C)=O)C(N(C)C)C2OC(C)=O)C(CC=O)CC(C)C(=O)C=CC(C)=CC1COC(=O)CC(C)C (centres unmarked) [Compound 21, 2',4'-Di-O-acetyl-23-O-i-valeryl-OMT] | 100 | 1.56 | < 0.05 | 0.195 | 0.78 | 0.39 | < 0.05 | 1.56 | 0.5 | 0.5 | 0.5 | 0.5 | 0.5 | 0.5 | 0.5 | 1 | 2 | 0.5 | 8 | 0.5 | –
6 | CCC1OC(=O)CC(O)C(C)C(OC2OC(C)C(OC(C)=O)C(N(C)C)C2OC(C)=O)C(CC=O)CC(C)C(=O)C=CC(C)=CC1COC(=O)C(C)C (centres unmarked) [Compound 17] | 100 | 1.56 | < 0.05 | < 0.05 | 0.39 | 0.195 | < 0.05 | 3.12 | 1 | 1 | 1 | 1 | 1 | 0.5 | 1 | 1 | 4 | 1 | 4 | 0.25 | –
7 | CCCC(=O)OCC1C=C(C)C=CC(=O)C(C)CC(CC=O)C(OC2OC(C)C(OC(C)=O)C(N(C)C)C2OC(C)=O)C(C)C(O)CC(=O)OC1CC (centres unmarked) [Compound 15] | 100 | 1.56 | < 0.05 | 0.097 | 0.78 | 0.39 | < 0.05 | 1.56 | 0.5 | 0.25 | 0.5 | 0.25 | 0.5 | 0.25 | 0.25 | 0.5 | 2 | 0.5 | 2 | 0.25 | –
8 | CCC1OC(=O)CC(O)C(C)C(OC2OC(C)C(OC(C)=O)C(N(C)C)C2OC(C)=O)C(CC=O)CC(C)C(=O)C=CC(C)=CC1COS(C)(=O)=O (centres unmarked) [Compound 45] | 100 | 3.12 | 0.39 | 0.195 | 3.12 | 0.78 | 0.39 | 1.56 | 2 | 1 | 1 | – | 1 | 0.5 | 1 | 2 | – | 2 | – | – | minimal inhibitory concentration (MIC) [21]: 1.56; minimal inhibitory concentration (MIC) [22]: 3.12; minimal inhibitory concentration (MIC) [23]: 6.25; minimal inhibitory concentration (MIC) [24]: 6.25; minimal inhibitory concentration (MIC) [25]: 3.12
